The values that follow come from patent US5344843A, “Cat-1 inhibitors, pharmaceutical compositions and methods of use” (Hoffman-La Roche Inc., priority 1992, dated 1994).

What is called pIC50 is the IC50 on a negative log10 scale, so that one unit is a factor of ten. By inhibition is commonly meant the share of the control response that was lost under treatment.

pIC50: −log10 of the molar value.

The first experiment deals with T1, CAT-1 (carnitine acyltransferase 1) (Rattus norvegicus, UniProt Q63704).
T1 construct: This preparation is used as the isolated mitochondrial preparation; from tissue; host or cells: rat heart (atria removed), isolated mitochondria
T1 sequence (Q63704 1-772): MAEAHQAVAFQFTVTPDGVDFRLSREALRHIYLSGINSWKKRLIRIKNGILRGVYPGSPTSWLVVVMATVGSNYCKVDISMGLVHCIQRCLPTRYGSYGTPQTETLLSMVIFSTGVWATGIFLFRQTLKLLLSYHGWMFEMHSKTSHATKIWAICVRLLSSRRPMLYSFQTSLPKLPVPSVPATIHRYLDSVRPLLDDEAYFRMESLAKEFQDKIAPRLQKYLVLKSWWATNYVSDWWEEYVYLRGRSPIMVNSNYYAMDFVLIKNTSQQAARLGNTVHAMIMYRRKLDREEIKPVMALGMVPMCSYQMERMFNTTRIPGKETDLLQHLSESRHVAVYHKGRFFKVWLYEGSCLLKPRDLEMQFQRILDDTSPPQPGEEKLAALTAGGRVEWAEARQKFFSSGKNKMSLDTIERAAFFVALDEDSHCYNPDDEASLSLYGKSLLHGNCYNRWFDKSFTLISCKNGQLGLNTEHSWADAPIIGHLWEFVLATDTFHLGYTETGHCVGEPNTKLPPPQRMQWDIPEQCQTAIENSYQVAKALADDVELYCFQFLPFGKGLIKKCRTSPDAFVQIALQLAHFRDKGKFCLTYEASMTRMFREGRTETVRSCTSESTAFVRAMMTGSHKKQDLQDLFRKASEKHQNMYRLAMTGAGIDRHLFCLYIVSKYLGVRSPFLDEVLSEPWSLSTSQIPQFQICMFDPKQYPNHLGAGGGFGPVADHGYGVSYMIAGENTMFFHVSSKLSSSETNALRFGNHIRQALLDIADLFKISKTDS
Briefly: Primary Screen--Inhibition of CAT-1 in isolated mitochondria. More on the design: inhibition: dose or concentration left out as unconfirmed. It counts as biochemical.
Conditions: not given
Take `Cc1nnc2n1-c1sc(CCCOc3ccc(C(=O)C(=O)O)cc3)cc1C(c1ccccc1Cl)=NC2` [Example 296]: the pIC50 was 5.00.
`O=C(O)C(=O)c1ccc(OCCOc2cc3ccccc3c3ccccc23)cc1` [Example 110, alpha-oxo-4-[[2-(9-phenanthrenyloxy)ethyl]oxy]benzeneacetic acid] gave a pIC50 of 7.00.
In turn, `O=C(O)C(=O)c1cc(F)c(OCCOc2ccc3ccccc3c2)c(F)c1` [Example 203, 3,5-difluoro-4-[2-(2-naphthalenyloxy)ethoxy]-alpha-oxobenzeneacetic acid] had an inhibition of 37%.
On the same count and under the same terms, then `COc1cc(OCCOc2ccc3ccccc3c2)cc(OC)c1C(=O)C(=O)O` [Example 195, 2,6-dimethoxy-4-[2-(2-naphthalenyloxy)ethoxy]-alpha-oxobenzeneacetic acid], with 24%.

Staying with this experiment, now noted: rat heart mitochondria, reduction of palmitoyl carnitine formation by 50%; read-out: Primary Screen IC50.
Consider `CCCc1c(OCCCOc2ccc(C(=O)C(=O)O)cc2)ccc(C(=O)OC)c1O` [Example 268, 4-[3-[3-hydroxy-4-(methoxycarbonyl)-2-propylphenoxy)propoxy]-alpha-oxobenzeneacetic acid], for which the pIC50 is 6.64.
Same read-out and setting: then `O=C(O)C(=O)c1ccc(OCC(=O)C2CCCCCCC2)cc1` [Example 290, 4-[2-(cyclooctyl)-2-oxoethoxy]-alpha-oxobenzeneacetic acid], with 6.00.
For `O=C(O)C(=O)c1ccc(OCCOc2ccccc2F)cc1` [Example 39, 4-[[2-(2-fluorophenoxy)ethyl]oxy]-alpha-oxobenzeneacetic acid], the pIC50 was 6.22.
Regarding `O=C(O)C(=O)c1ccc(OCCOc2ccc3ccncc3c2)cc1` [Example 129, 4-[[2-(7-isoquinolyloxy)ethyl]oxy]-alpha-oxobenzeneacetic acid (5:2) molar hydrate], the pIC50 was 6.36.
As for `O=C(O)C(=O)c1ccc(OCCOc2ccc(Oc3ccccc3)cc2)cc1` [Example 59, alpha-oxo-4-[[2-(4-phenoxyphenoxy)ethyl]oxy]benzeneacetic acid], the pIC50 was 5.00.
As for `Cc1ccc(OCCOc2ccc(C(=O)C(=O)O)cc2)cc1` [Example 49, 4-[[2-(4-methylphenoxy)ethyl]oxy]-alpha-oxobenzeneacetic acid], the pIC50 was 5.40.
The same measure, in the same setting: for `COc1ccc(OCCOc2ccc(C(=O)C(=O)O)cc2)cc1OC` [Example 63, 4-[[2-(3,4-dimethoxyphenoxy)ethyl]oxy]-alpha-oxobenzeneacetic acid] the value was 5.52; for `O=C(O)C(=O)c1ccc(OCCOc2ccc(F)cc2)cc1` [Example 43, 4-[[2-(4-fluorophenoxy)ethyl]oxy]-alpha-oxobenzeneacetic acid], 6.10; for `C=CCO/N=C(\C(=O)O)c1ccc(OCCOc2ccc3ccccc3c2)s1` [Example 313, (E)-5-[2-(2-naphthalenyloxy)ethoxy]-alpha-[(2-propenyloxy)imino]-2-thiopheneacetic acid], 6.57.
As to `O=C(O)C(=O)c1ccc(OCCOCCOc2ccc(C(=O)C(=O)O)cc2)cc1` [Example 78, 4,4'-[oxybis(2,1-ethanedienyloxy)]bis(alpha-oxobenzeneacetic acid)], the pIC50 was 5.70.
Consider `O=C(O)C(=O)c1ccc(OCOc2ccccc2)cc1` [Example 67, alpha-oxo-4-[[(phenoxy)methyl]oxy]benzeneacetic acid], for which the pIC50 was 4.82.
On the same count and under the same terms, then `CCO/N=C(/C(=O)O)c1ccc(OCCOc2ccc3ccccc3c2)s1` [Example 309, (Z)-alpha-(ethoxyimino)-5-[2-(2-naphthalenyloxy)ethoxy]-2-thiopheneacetic acid], with 7.70; and `O=C(O)C(=O)c1ccc(OCC(=O)N2CCc3ccccc3C2)cc1` [Example 251, 4-[2-oxo-2-(1,2,3,4-tetrahydro-2-isoquinolinyl)ethoxy]-alpha-oxobenzeneacetic acid], with 6.40; and `O=C(O)C(=O)c1ccc(NCCOc2ccc3ccccc3c2)cc1` [Example 168, 4-[[2-(2-naphthalenyloxy)ethyl]amino]-alpha-oxobenzeneaceticacid], with 6.15.
Take `Cc1cc(OCCOc2ccc3ccccc3c2)ccc1C(=O)C(=O)O` [Example 183, 2-methyl-4-[2-(2-naphthalenyloxy)ethoxy]-alpha-oxobenzeneacetic acid (4:1) hydrate]: the pIC50 was 5.33.
With `O=C(O)C(=O)c1ccc(OCCOc2ccc3c(c2)CCCC3)cc1` [Example 112, alpha-oxo-4-[[2-(5,6,7,8-tetrahydro-2-naphthalenyloxy)ethyl]oxy]benzeneacetic acid], the pIC50 was 6.70.
Same read-out and setting: then `O=C(O)C(=O)c1ccc(OCCOC2CCc3ccccc3C2)cc1` (racemic) [Example 114, rac.-alpha-oxo-4-[[2-(1,2,3,4-tetrahydro-2-naphthalenyloxy)ethyl]oxy]benzeneacetic acid], with 5.55; and `O=C(O)C(=O)c1ccc([S+]([O-])CCOc2ccc3ccccc3c2)cc1` (racemic) [Example 151, rac.-4-[[2-(2-naphthalenyloxy)ethyl]sulfinyl]-alpha-oxobenzeneacetic acid], with 5.26.
On the same count and under the same terms, for `O=C(O)C(=O)c1ccc(OCCCOc2ccccc2)cc1` [Example 69, alpha-oxo-4-[[(3-phenoxy)propyl]oxy]benzeneacetic acid] the value was 5.70.
Turning to `O=C(O)/C(=N/OCc1ccccc1)c1ccc(OCCOc2ccc3ccccc3c2)s1` [Example 315, (Z)-5-[2-(2-naphthalenyloxy)ethoxy]-alpha-[(phenylmethoxy)imino]-2-thiopheneacetic acid], the pIC50 is 6.85.
Consider `O=C(O)C(=O)c1ccc(OCC(=O)N2CCOCC2)cc1` [Example 255, 4-[2-(4-morpholinyl)-2-oxoethoxy]-alpha-oxobenzeneacetic acid], for which the pIC50 was 4.92.
As to `O=C(COc1ccc2ccccc2c1)Nc1ccc(C(=O)C(=O)O)cc1` [Example 153, 4-[[2-(2-naphthalenyloxy)acetyl]amino]-alpha-oxobenzeneacetic acid], the pIC50 is 6.03.
Same read-out and setting: for `CCCc1c(OCCCOc2ccc(C(=O)C(=O)O)cc2)ccc(C(C)=O)c1OC` [Example 271, 4-[3-[4-acetyl-3-methoxy-2-propylphenoxy)propoxy]-alpha-oxobenzeneacetic acid] the value was 6.34; for `O=C(O)C(=O)c1ccc(OCCOCCOc2ccccc2)cc1` [Example 77, 4-[[2-[[2-(phenoxy)ethyl]oxy]ethyl]oxy]-alpha-oxobenzeneacetic acid], 5.70.
The same measure, in the same setting: for `O=C(O)C(=O)c1ccc(OCC(=O)N2CCN(c3ccccc3)CC2)cc1` [Example 249, 4-[2-oxo-2-(4-phenyl-1-piperazinyl)ethoxy]-alpha-oxobenzeneacetic acid] the value was 5.00; for `O=C(O)C(=O)c1ccc(OCc2ccccc2)cc1` [Example 19, 4-[(phenylmethyl)oxy]-alpha-oxobenzeneacetic acid], 4.05.
As for `O=C(O)C(=O)c1ccc(OCCCn2c(=O)ccc3ccccc32)cc1` [Example 264, 4-[3-(1,2-dihydro-2-oxo-1-quinolinyl)propoxy]-alpha-oxobenzeneacetic acid], the pIC50 was 4.92.
Same read-out and setting: then `O=C(O)C(=O)c1ccc(OC/C=C/c2ccccc2)cc1` [Example 31, (E)-alpha-oxo-4-[(3-phenyl-2-propenyl)oxy]benzeneacetic acid], with 7.00.
Same read-out and setting: then `O=C(O)C(=O)c1ccc(OCCOc2ccc(-c3ccccc3)cc2)cc1` [Example 57, 4-[[2-[4-(1,1'-biphenyl)oxy]ethyl]oxy]-alpha-oxobenzeneacetic acid], with 5.30.
The same measure, in the same setting: for `O=C(O)C(=O)c1ccc(OCc2ccc3ccccc3n2)cc1` [Example 159, 4-[(2-quinolinyl)methoxy]-alpha-oxo-benzeneacetic acid] the value was 5.29.
In the case of `O=C(O)C(=O)c1ccc(OCCOc2ccc(C(F)(F)F)cc2)cc1` [Example 51, alpha-oxo-4-[[2-(4-trifluoromethylphenoxy)ethyl]oxy]benzeneacetic acid], the pIC50 was 6.10.
On the same count and under the same terms, for `CN(C)/N=C(\C(=O)O)c1ccc(OCCOc2ccc3ccccc3c2)cc1` [Example 321, (Z)-alpha-(dimethylhydrazono)-4-[2-(2-naphthalenyloxy)ethoxy]benzeneaceticacid] the value was 5.19; for `O=C(O)C(=O)c1ccc(OCCOc2cccc(F)c2)cc1` [Example 41, 4-[[2-(3-fluorophenoxy)ethyl]oxy]-alpha-oxobenzeneacetic acid], 6.00; for `O=C(O)C(=O)c1ccc(OCCOc2ccnc3ccccc23)cc1` [Example 131, alpha-oxo-4-[[2-(4-quinolyloxy)ethyl]oxy]benzeneacetic acid], 6.02.
On the same count and under the same terms, then `O=C(O)C(=O)c1ccc(OCCOc2ccc(C(=O)C(=O)O)cc2)cc1` [Example 55], with 5.22; and `CC(=O)c1ccc(OCCCOc2ccc(C(=O)C(=O)O)cc2)cc1O` [Example 273, 4-[3-(4-acetyl-3-hydroxyphenoxy)propoxy]-alpha-oxobenzeneacetic acid], with 6.14.
